From patent publication US8722014B2, “1 H-[1, 2, 3] triazole substituted amino acids and uses thereof” (Washington University, priority 2009, dated 2014)
“And” between values parts separate entries of the source, which are not always exact repeats. Equal values may be shown once. Read-outs that look alike come from different tables or passages of the source.

Columns and labels:
9L gliosarcoma cells = experiment: Cell uptake assay in 9L gliosarcoma cells with amino acid transport inhibitors (cluster tray method); format: cell-based; conditions: for percent uptake relative to control, Na ASC: L-Ala/L-Ser/L-Cys 3.3 mM each
Method: The 9L gliosarcoma tumor is an established model for human glioblastoma (brain tumor). Cell uptake assays were performed with 9L gliosarcoma cells using both (R)-[^18F]4 and (S)-[^18F]4. 9L gliosarcoma cells were cultured with Earle's minimal essential medium (MEM) augmented with 10% newborn calf serum, 1% 200 mM L-glutamine, 1% MEM vitamin solution and 1% 10 mM non-essential amino acids (NEAA). The cells were passaged every two to three days prior to use with no more than a total of 20 passages. Two to three days before the uptake assays, suspension of 2.5 or 5.0×10^4 cells in culture media were aliquoted into Costar 24 well plates to achieve log growth phase with approximately 70% confluency at the time of the uptake assay (approximately 10^5 cells per well).
Cell uptake assays were performed using the cluster tray method reported in Gazzola et al., Anal. Biochem. 115: 368-374, 1981. Two buffers were used for the assays, a phosphate buffered saline solution and a sodium-free phosphate buffered choline chloride solution. […] The choline buffer was the same as the sodium buffer except choline chloride was substituted for sodium chloride and choline phosphate dibasic was substituted for sodium phosphate dibasic. A 250 mM solution of choline phosphate dibasic was prepared by boiling 95.6 mL of 75% of choline bicarbonate (0.500 mol) and 16.9 mL of 85% aqueous phosphoric acid (0.247 mol) in 750 mL of water for 60 min. The solution was brought to a total volume of 1 liter with water and brought to pH 7.4 with concentrated aqueous hydrochloric acid. The pH of the sodium and choline buffer solutions was adjusted to 7.4 with concentrated aqueous hydrochloric acid prior to use.
A variety of inhibitor conditions were used to determine which amino acid transport system or systems were responsible for cellular uptake of (R)- and (S)-[^18F]-4. The N-methylated amino acid, methylaminoisobutyric acid (MeAIB), is a selective system A substrate and has been used extensively as a competitive inhibitor of system A transport (Shotwell, M. A., et al. Biochem. Biophys. Acta. 737: 267-284, 1983; Christensen, H. N., et al., J. Biol. Chem. 240: 3609-3616, 1965) The bulky neutral amino acid, 2-aminobicyclo-(2,2,1)-heptane-2-carboxylic acid (BCH), has been extensively used as a competitive inhibitor of system L transport, and under sodium-free conditions BCH is a selective system L inhibitor (Palacin, M., et al., Physiol. Rev. 78: 969-1054, 1998. In the presence of sodium, BCH is also an inhibitor of system B^0,+ which is a sodium-dependent amino acid transporter that typically is a minor transport systems in most tissues. A mixture of L-alanine (L-Ala), L-serine (L-Ser) and L-cysteine (L-Cys), (ASC), was used as a non-specific inhibitor condition, and this combination of amino acids is expected to inhibit a broad range of amino acid transport systems including system ASC. Because of the results of initial cell uptake assays described below and the structural relationship of the 1H-1,2,3-triazole group to the imidazole side chain of L-histidine (L-His), additional uptake assays using L-His as well as the basic side chain amino acids L-arginine (L-Arg) and L-lysine (L-Lys) individually and together (RKH) as competitive inhibitors were performed.
The following inhibitors were added to the appropriate sodium or choline buffer: N-methyl aminoisobutyric acid (MeAIB, 10 mM), a mixture of L-alanine/L-serine/L-cysteine (ASC, 3.3 mM of each amino acid), (R,S)-(endo,exo)-2-aminobicyclo(2,2,1)-heptane-2-carboxylic acid (BCH, 10 mM), L-arginine (Arg, 10 mM), L-lysine (Lys, 10 mM), L-histidine (His, 10 mM) and a mixture of Arg/Lys/H is (RKH, 3.3 mM of each amino acid). For control conditions, 10 mM of sucrose was added to maintain consistent osmolality relative to the inhibitor conditions. The pH of each solution of inhibitor in buffer was adjusted as necessary to 7.40 with 3 M aqueous hydrochloric acid prior to use in cell uptake assays. […]

[1] = test system: subcutaneous 9L gliosarcoma tumors
Method: Biodistribution studies were performed with both enantiomers, (R)-[^18F]4 and (S)-[^18F]4, using Fischer 344 rats (Charles River Laboratories, Wilmington Mass., USA) implanted with subcutaneous 9L gliosarcoma tumors. The tumors were implanted by subcutaneous injection of a suspension of approximately 1×10^69L gliosarcoma cells into the flanks of the rats. The tumors were allowed to grow for 3 weeks prior to the study. The rats were allowed food and water ad libitum prior to the biodistribution study. Anesthesia was achieved using a mixture of 1% isoflurane in oxygen, and the radiolabeled amino acid (R)-[^18F]4 or (S)-[^18F]4 was injected intravenously through a tail vein. The animals were euthanized in groups of four for each enantiomer at 5, 30 or 60 minutes after injection. The organs and tissues of interest and the tumors were dissected and weighed, and the amounts of activity were measured and decay corrected to the time of injection with a gamma counter. Standards for the doses were also measured with a gamma counter, and the data were normalized as the percent of total dose per gram of tissue (% ID/g) for each sample. The data were analyzed using GraphPad Prism software with 1-way ANOVAs for each enantiomer at each time point with Bonferroni post-tests. The tumor and brain uptake of radioactivity was directly compared for both enantiomers at each time point with a 2-way ANOVA with Bonferroni post-test. p-values less than or equal to 0.05 were considered statistically significant.

With Cl.N[C@H](Cc1cn(CC[18F])nn1)C(=O)O [(R)-[^18F]4, (R)-2-amino-3-[1-(2-fluoroethyl)-1H-[1,2,3]triazol-4-yl]propanoic acid hydrochloride salt-[^18F]] the “inhibition of uptake by ASC condition relative to the sodium control” value (9L gliosarcoma cells; neutral amino acid inhibitor assay, p<0.001) was 36%, the “uptake mediated by system L or cationic amino acid transport systems” value (9L gliosarcoma cells; same uptake assays with inhibitors) was “did not demonstrate significant uptake” and the “inhibition of uptake by ASC condition relative to the sodium control” value (9L gliosarcoma cells; second independent assay, p<0.01) was 33%. The “percent uptake relative to control, Na RKH” value (9L gliosarcoma cells; sodium buffer, Arg/Lys/His 3.3 mM each (FIG. 4/6)) was 82±4%, the “percent uptake relative to control, Na BCH” value (9L gliosarcoma cells; sodium buffer, BCH 10 mM, 30 sec uptake, neutral amino acid inhibitor assay (FIG. 3/5)) was 110±11% and the “percent uptake relative to control, Na ASC” value (9L gliosarcoma cells; sodium buffer, 30 sec uptake, neutral amino acid inhibitor assay (FIG. 3/5)) was 64±6%. The “percent uptake relative to control, Na ASC” value (9L gliosarcoma cells; sodium buffer, basic side chain amino acid inhibitor assay (FIG. 4/6)) was 67±15%, the “percent uptake relative to control, Na Arg” value (9L gliosarcoma cells; sodium buffer, L-arginine 10 mM (FIG. 4/6)) was 83±7% and the “percent uptake relative to control, Na His” value (9L gliosarcoma cells; sodium buffer, L-histidine 10 mM (FIG. 4/6)) was 91±10%. The “percent uptake relative to control, Na Lys” value (9L gliosarcoma cells; sodium buffer, L-lysine 10 mM (FIG. 4/6)) was 104±8%, the “percent uptake relative to control, Na MeAIB” value (9L gliosarcoma cells; sodium buffer, MeAIB 10 mM, 30 sec uptake, neutral amino acid inhibitor assay (FIG. 3/5)) was 97±7% and the “percent uptake relative to control, Cho BCH” value (9L gliosarcoma cells; sodium-free choline buffer, BCH 10 mM, relative to sodium control (FIG. 3/5)) was 95±4%. For the same molecule, the “percent uptake relative to control, Cho sucrose” value (9L gliosarcoma cells; sodium-free choline buffer, sucrose 10 mM, relative to sodium control (FIG. 3/5)) was 107±14%, the “biodistribution: blood” value ([1]; 5 min after i.v. injection) was 0.90 ± 0.166 % ID/g and the “biodistribution: bone” value ([1]; 5 min after i.v. injection) was 0.32 ± 0.083 % ID/g. For the same molecule, the “biodistribution: brain” value ([1]; 5 min after i.v. injection) was 0.09 ± 0.015 % ID/g, the “biodistribution: fat” value ([1]; 5 min after i.v. injection) was 0.10 ± 0.044 % ID/g and the “biodistribution: heart” value ([1]; 5 min after i.v. injection) was 0.42 ± 0.076 % ID/g. For the same molecule, the “biodistribution: kidney” value ([1]; 5 min after i.v. injection) was 14.01 ± 3.826 % ID/g, the “biodistribution: large intestine” value ([1]; 5 min after i.v. injection) was 0.15 ± 0.043 % ID/g and the “biodistribution: liver” value ([1]; 5 min after i.v. injection) was 0.54 ± 0.153 % ID/g. The “biodistribution: lung” value ([1]; 5 min after i.v. injection) was 0.74 ± 0.143 % ID/g, the “biodistribution: muscle” value ([1]; 5 min after i.v. injection) was 0.18 ± 0.049 % ID/g and the “biodistribution: pancreas” value ([1]; 5 min after i.v. injection) was 0.53 ± 0.126 % ID/g. The “biodistribution: salivary gland” value ([1]; 5 min after i.v. injection) was 0.46 ± 0.083 % ID/g, the “biodistribution: small intestine” value ([1]; 5 min after i.v. injection) was 0.32 ± 0.079 % ID/g and the “biodistribution: spleen” value ([1]; 5 min after i.v. injection) was 0.33 ± 0.065 % ID/g. The “biodistribution: testes” value ([1]; 5 min after i.v. injection) was 0.18 ± 0.042 % ID/g, the “biodistribution: thyroid” value ([1]; 5 min after i.v. injection) was 0.64 ± 0.092% of total dose per organ and the “biodistribution: tumor” value ([1]; 5 min after i.v. injection) was 0.27 ± 0.042 % ID/g. The “tumor:brain ratio” value ([1]; 5 min after i.v. injection) was 3.2, the “biodistribution: blood” value ([1]; 30 min after i.v. injection) was 0.28 ± 0.037 % ID/g and the “biodistribution: bone” value ([1]; 30 min after i.v. injection) was 0.13 ± 0.027 % ID/g. The “biodistribution: brain” value ([1]; 30 min after i.v. injection) was 0.04 ± 0.005 % ID/g, the “biodistribution: fat” value ([1]; 30 min after i.v. injection) was 0.03 ± 0.012 % ID/g and the “biodistribution: heart” value ([1]; 30 min after i.v. injection) was 0.13 ± 0.014 % ID/g. The “biodistribution: kidney” value ([1]; 30 min after i.v. injection) was 6.76 ± 0.830 % ID/g, the “biodistribution: large intestine” value ([1]; 30 min after i.v. injection) was 0.08 ± 0.060 % ID/g and the “biodistribution: liver” value ([1]; 30 min after i.v. injection) was 0.58 ± 0.074 % ID/g. The “biodistribution: lung” value ([1]; 30 min after i.v. injection) was 0.54 ± 0.211 % ID/g, the “biodistribution: muscle” value ([1]; 30 min after i.v. injection) was 0.08 ± 0.020 % ID/g and the “biodistribution: pancreas” value ([1]; 30 min after i.v. injection) was 0.50 ± 0.105 % ID/g. For the same molecule, the “biodistribution: salivary gland” value ([1]; 30 min after i.v. injection) was 0.20 ± 0.016 % ID/g, the “biodistribution: small intestine” value ([1]; 30 min after i.v. injection) was 0.30 ± 0.154 % ID/g and the “biodistribution: spleen” value ([1]; 30 min after i.v. injection) was 0.18 ± 0.004 % ID/g. The “biodistribution: testes” value ([1]; 30 min after i.v. injection) was 0.08 ± 0.011 % ID/g, the “biodistribution: thyroid” value ([1]; 30 min after i.v. injection) was 0.21 ± 0.023% of total dose per organ and the “biodistribution: tumor” value ([1]; 30 min after i.v. injection) was 0.29 % ID/g and 0.29 ± 0.132 % ID/g. For the same molecule, the “tumor:brain ratio” value ([1]; 30 min after i.v. injection) was 8.8, the “biodistribution: blood” value ([1]; 60 min after i.v. injection) was 0.14 ± 0.015 % ID/g and the “biodistribution: bone” value ([1]; 60 min after i.v. injection) was 0.08 ± 0.007 % ID/g. For the same molecule, the “biodistribution: brain” value ([1]; 60 min after i.v. injection) was 0.02 ± 0.001 % ID/g, the “biodistribution: fat” value ([1]; 60 min after i.v. injection) was 0.02 ± 0.002 % ID/g and the “biodistribution: heart” value ([1]; 60 min after i.v. injection) was 0.08 ± 0.006 % ID/g. For the same molecule, the “biodistribution: kidney” value ([1]; 60 min after i.v. injection) was 2.39 ± 0.138 % ID/g, the “biodistribution: large intestine” value ([1]; 60 min after i.v. injection) was 0.05 ± 0.002 % ID/g and the “biodistribution: liver” value ([1]; 60 min after i.v. injection) was 0.48 ± 0.023 % ID/g. For the same molecule, the “biodistribution: lung” value ([1]; 60 min after i.v. injection) was 0.37 ± 0.100 % ID/g, the “biodistribution: muscle” value ([1]; 60 min after i.v. injection) was 0.05 ± 0.006 % ID/g and the “biodistribution: pancreas” value ([1]; 60 min after i.v. injection) was 0.43 ± 0.063 % ID/g. The “biodistribution: salivary gland” value ([1]; 60 min after i.v. injection) was 0.15 ± 0.009 % ID/g, the “biodistribution: small intestine” value ([1]; 60 min after i.v. injection) was 0.35 ± 0.015 % ID/g and the “biodistribution: spleen” value ([1]; 60 min after i.v. injection) was 0.14 ± 0.002 % ID/g. For the same molecule, the “biodistribution: testes” value ([1]; 60 min after i.v. injection) was 0.05 ± 0.002 % ID/g, the “biodistribution: thyroid” value ([1]; 60 min after i.v. injection) was 0.12 ± 0.010% of total dose per organ and the “biodistribution: tumor” value ([1]; 60 min after i.v. injection) was 0.17 ± 0.009 % ID/g. The “tumor:brain ratio” value ([1]; 60 min after i.v. injection) was 6.9.
